US10278965B2, “Method of detecting cancer stem cell, method of screening cancer stem cell, and method of inhibiting cancer stem cell” (CANON KABUSHIKI KAISHA, priority 2012, dated 2019)

How the values were obtained:
[1] = test system: K562 ALDH (+) cells; experiment: Cancer stem-cell selective staining, ALDH (+) cells; type: cell-based, Human; settings: cells of Experimental Examples 39, 42 and 45 (1 μg/ml, cultured for 24 hours), fluorescent microscope
Procedure: (§1) The cells cultured for 24 hours in each of Experimental Examples 39, 42 and 45 were subjected to nuclear staining with Hoechest33342 (manufactured by Dojindo Laboratories) and a fluorescent image observed under AXIOVERT200M inverted fluorescent microscope (manufactured by Carl Zeiss) was photographed.

[2] = test system: K562 ALDH (−) cells; experiment: Cancer stem-cell selective staining, ALDH (−) cells; type: cell-based, Human; settings: cells of Experimental Examples 39, 42 and 45 (1 μg/ml, cultured for 24 hours), fluorescent microscope
Procedure: as §1

[3] = test system: Human chronic myelocytic leukemia cells, K562, ALDH (+) fraction (cancer stem cells); experiment: Cancer stem-cell selective inhibitory action against chronic myelocytic leukemia cells, ALDH (+) fraction; type: cell-based; settings: 24 hours
Procedure: (§2) Human chronic myelocytic leukemia cells, K562, were pre-cultured in RPMI1640 medium containing 10% FBS at 37° C. in a 5% CO2 ambient. Then, a fraction containing 80% or more of cancer stem cells was extracted by use of a cancer stem cell marker, ALDEFLUOR reagent (manufactured by VERITAS Corporation) and FACSAria flow cytometry (manufactured by Nippon Becton, Dickinson and Company). […] The cultured cells were analyzed for viable cell count according to CellTiter-Glo Luminescent Cell Viability Assay (manufactured by Promega KK.). […] Note that hereinafter, an ALDEFLUOR reagent positive fraction (deemed as cancer stem cells) is represented by ALDH (+), whereas an ALDEFLUOR reagent negative fraction (not deemed as cancer stem cells) is represented by ALDH (−), in some cases.
(§3) Further, the growth suppressive effect of cancer stem cells was evaluated based on the following criteria. Note that the growth rate in Examples is a value obtained by dividing viable cell count after culture by the number of cells at the initiation time of culture.

[4] = Measurement of fluorescent property of compound; type: physicochemical; settings: 5 μM DMSO solution
Procedure: The excitation wavelength and fluorescence wavelength of the compound were measured by a FL4500 spectrofluorometric measuring machine manufactured by Hitachi High-Technologies Corporation.

[5] = test system: Human pancreas cancer cells, KLM-1; experiment: Cancer cell inhibitory (growth suppressive) action against pancreatic cancer cells, CellTiter-Glo viable cell count; settings: KLM-1, 10 μg/mL, 24 hours
Procedure: Human pancreas cancer cells, KLM-1, were pre-cultured in RPMI1640 medium containing 10% FBS at 37° C. in a 5% CO2 ambient. Thereafter, 4,000 cells were seeded per well of a 96-well plate and further cultured for 24 hours. […] The cultured cells were analyzed for viable cell count according to CellTiter-Glo Luminescent Cell Viability Assay (manufactured by Promega KK.).
Evaluation of cancer cell inhibition against the pancreatic cancer cells (KLM-1) (growth suppression) was made based on the following criteria. Note that the growth rate used in Examples refers to the rate (expressed by percentage) of viable cell count after culture relative to the number of cells at the initiation of cell culture.

[6] = test system: Human chronic myelocytic leukemia cells, K562, ALDH (−) fraction (general cancer cells); experiment: Cancer stem-cell selective inhibitory action against chronic myelocytic leukemia cells, ALDH (−) fraction; type: cell-based
Procedure: as §2, §3

[7] = test system: K562-KOr human chronic myelocytic leukemia cells, ALDH (−) fraction, transplanted to zebra young fish; experiment: Inhibitory action in cancer cells transplanted animal, ALDH (−) fraction; type: in vivo; settings: 0.5 μm in breeding water added 24 hours after transplantation, fluorescent intensity
Excerpt: (§4) From cell strain K562-KOr, which is a strain of human chronic myelocytic leukemia cells having fluorescent protein Kusabira-Orange constantly expressed, a fraction (ALDH (+)) containing 80% or more of cancer stem cells was extracted by use of a cancer stem cell marker, ALDEFLUOR reagent (manufactured by VERITAS Corporation) and FACSAria flow cytometry (manufactured by Nippon Becton, Dickinson and Company). The ALDH (+) fraction and a ALDH (−) fraction of general cancer cells were transplanted separately to zebra young fish (MieKomachi lineage, 2 days after fertilization) and the fish were raised in a 32° C. environment. Furthermore, 24 hours after transplantation, Compound (16) was added to breeding water so as to obtain a final concentration of […] and fish were raised for two days in a 32° C. environment.
(§5) Cells transplanted to the zebra young fish were observed under MZ16F fluorescent stereoscopic microscope (manufactured by Leica Microsystems) and a fluorescent image of the cells after 24 hours was photographed and then fluorescent intensity was quantified.
As a reference, the fluorescent intensity of cells, which were cultured in the same operation method as above in a medium containing a 0.1% DMSO solution in place of Compound (16), was used. […]

[8] = test system: K562-KOr human chronic myelocytic leukemia cells, ALDH (+) fraction, transplanted to zebra young fish; experiment: Inhibitory action in cancer stem cells transplanted animal, ALDH (+) fraction; type: in vivo
Excerpt: as §4, §5
As a reference, the fluorescent intensity of cells, which were cultured in the same operation method as above in a medium containing a 0.1% DMSO solution in place of Compound (16), was used.
The numerical value of fluorescent intensity was obtained from a fluorescent image taken in the same manner as in Experimental Example 74 except that Compound (16) of Experimental Example 74 was changed to Imatinib.
. The inhibition rate herein was obtained according to the expression: 100×(1−F1/F0), where the fluorescent intensity of cells when a test substance was added is represented by F1, and the fluorescent intensity of cells when a reference substance (DMSO) was added is represented by F0.

[9] = test system: KLM1-KOr cells, ALDH (+) fraction, transplanted to zebra young fish; experiment: Cancer metastasis suppressive effect in cancer cell metastatic foci (region within 300 to 450 μm from a transplanted tumor); type: in vivo; settings: 72 hours later, region within 300 to 450 μm from transplanted tumor; for Inhibition rate 100×(1−F1/F0), metastatic foci: administered to yolk sac 24 hours after transplantation (Compound (26) 745 μmol/KgBW)
Procedure: From cell strain […], in which KLM1 cells have fluorescent protein Kusabira-Orange constantly expressed, a fraction (ALDH (+)) containing 80% or more of cancer stem cells was extracted with ALDEFLUOR reagent (manufactured by VERITAS Corporation) and FACSAria flow cytometry (manufactured by Nippon Becton, Dickinson and Company). The extracted KLM1-KOr cells were transplanted to zebra young fish (MieKomachi lineage, 2 days after fertilization) and the fish were raised in a 32° C. environment. Furthermore, 24 hours after transplantation, Compound (26) (745 μmol/KgBW) was administered to yolk sac.
as §5, with “72 hours later, cells” for “Cells”, “region within 300 to 450 μm from a transplanted tumor” for “cells after 24 hours”
As a reference, the fluorescent intensity of cells, which were cultured in the same operation method as above in a medium containing a 0.1% DMSO solution in place of Compound (26), was used.
Fluorescent images were photographed in the same manner as in Experimental Example 26 except that Imatinib and Dasatinib were respectively used in place of the compound (26) in Experimental Example 75.
The inhibition rate herein was obtained according to the expression: 100×(1−F1/F0), where the fluorescent intensity of cells when a test substance was added is represented by F1, and the fluorescent intensity of cells when a reference substance (DMSO) was added is represented by F0.

[10] = test system: Prostatic cancer cells, PC-3; experiment: Cancer cell inhibitory (growth suppressive) action against prostatic cancer cells, CellTiter-Glo viable cell count; type: cell-based; settings: PC-3, 10 μg/mL, 24 hours
Procedure: Prostatic cancer cells, PC-3, were pre-cultured in RPMI1640 medium containing 10% FBS at 37° C. in a 5% CO2 ambient. Thereafter, 4,000 cells were seeded per well of a 96-well plate and further cultured for 24 hours. Subsequently, Compound (1) was added to the medium so as to obtain a final concentration of 10 μg/mL and cultured at 37° C. for 24 hours in a 5% CO2 ambient. The cultured cells were analyzed for viable cell count according to Cell Titer-Glo Luminescent Cell Viability Assay (manufactured by Promega KK.).
Viable cell count was analyzed in the same manner as in Experimental Example 24 except that Compound (1) of Experimental Example 24 was changed to each compound shown in Table 2.
Viable cell count was analyzed in the same manner as in Experimental Example 24 except that Compound (1) of Experimental Example 24 was changed to each of Comparative compounds 1 to 4, to obtain growth rates.
Note that the growth rate used in Examples refers to the rate (expressed by percentage) of viable cell count after culture relative to the number of cells at the initiation of cell culture. Evaluation criteria are the same as in the above experiments.

Row | Structure (SMILES) | ratio of ALDH (+) cells stained [1] | ratio of ALDH (−) cells stained [2] | ALDH(+) Superiority evaluation ([3]; K562, 0.05 μg/ml) | ALDH(+)/ALDH(−) ([3]; K562, 0.05 μg/ml) | ALDH(+) Superiority evaluation ([3]; K562, 0.5 μg/ml) | ALDH(+)/ALDH(−) ([3]; K562, 0.5 μg/ml) | ALDH(+) Superiority evaluation ([3]; K562, 1 μg/ml) | ALDH(+)/ALDH(−) ([3]; K562, 1 μg/ml) | ALDH(+) Superiority evaluation ([3]; K562, 10 μg/ml) | ALDH(+)/ALDH(−) ([3]; K562, 10 μg/ml) | Excitation wavelength λex [4] | Fluorescence wavelength λem [4] | Cancer cell growth rate (%) [5] | Evaluation (cancer cell growth rate) [5] | Inhibition rate 100×(1−F1/F0), metastatic foci [9] | Evaluation (inhibition rate, metastatic foci) [9] | also measured
1 | CCN1C=C/C(=C/C=C/c2oc3ccccc3[n+]2CC)c2ccccc21 [Compound 35] | 82.5% | 21.4% | A (The value of the growth rate of ALDH (+)/the growth rate of ALDH (−) is less than 0.8) | 0.77 | A (The value of the growth rate of ALDH (+)/the growth rate of ALDH (−) is less than 0.8) | 0.66 | B (The value of the growth rate of ALDH (+)/the growth rate of ALDH (−) is 0.8 or more and less than 0.95) | 0.90 | A (The value of the growth rate of ALDH (+)/the growth rate of ALDH (−) is less than 0.8) | 0.69 | 571 nm | 620 nm | 29.7% | B (Cancer cell growth rate is 20% or more and less than 50%) |  |  | 
2 | CCN1C=C/C(=C/C=C/c2sc3ccccc3[n+]2CC)c2ccccc21.[I-] [Compound 34] |  |  |  |  |  |  |  |  | A (The value of the growth rate of ALDH (+)/the growth rate of ALDH (−) is less than 0.8) | 0.72 | 638 nm | 661 nm | 26.6% | B (Cancer cell growth rate is 20% or more and less than 50%) |  |  | ALDH(−) growth rate ([6]; K562 ALDH(−), 10 μg/ml, 24 hours): 0.67; ALDH(+) growth rate ([3]; K562 ALDH(+), 10 μg/ml): 0.48; Growth suppression evaluated ([3]; K562 ALDH(+), 10 μg/ml): A (The growth rate of ALDH (+) is less than 0.5)
3 | Cc1ccc(NC(=O)c2ccc(CN3CCN(C)CC3)cc2)cc1Nc1nccc(-c2cccnc2)n1 [Imatinib, reference compound] |  |  |  |  |  |  |  |  |  |  |  |  |  |  | 60 | B (Inhibition rate is 50 or more and less than 70) | inhibitory effect against general cancer cells ([6]; K562): an inhibitory effect against general cancer cells was observed; ALDH(+) Superiority evaluation ([3]; K562, 0.12 μg/ml): C (The value of the growth rate of ALDH (+)/the growth rate of ALDH (−) is 0.95 or more); ALDH(+)/ALDH(−) ([3]; K562, 0.12 μg/ml): 1.47; ALDH(+) Superiority evaluation ([3]; K562, 0.24 μg/ml): C (The value of the growth rate of ALDH (+)/the growth rate of ALDH (−) is 0.95 or more); ALDH(+)/ALDH(−) ([3]; K562, 0.24 μg/ml): 1.48; ALDH(+) Superiority evaluation ([3]; K562, 0.35 μg/ml): C (The value of the growth rate of ALDH (+)/the growth rate of ALDH (−) is 0.95 or more); ALDH(+)/ALDH(−) ([3]; K562, 0.35 μg/ml): 1.51; ALDH(+) Superiority evaluation ([3]; K562, 0.47 μg/ml): C (The value of the growth rate of ALDH (+)/the growth rate of ALDH (−) is 0.95 or more); ALDH(+)/ALDH(−) ([3]; K562, 0.47 μg/ml): 1.63; ALDH(+) Superiority evaluation ([3]; K562, 0.59 μg/ml): C (The value of the growth rate of ALDH (+)/the growth rate of ALDH (−) is 0.95 or more); ALDH(+)/ALDH(−) ([3]; K562, 0.59 μg/ml): 2.80; ALDH(−) inhibition rate 100×(1−F1/F0) [7]: 80.0; Growth suppression rate (ALDH(+) versus ALDH(−)) ([8]; zebra young fish transplanted with K562-KOr fractions): ALDH(−) is high; ALDH(+) inhibition rate 100×(1−F1/F0) ([8]; zebra young fish, 0.5 μm in breeding water added 24 hours after transplantation, fluorescent intensity): 60.0
4 | CCN1/C(=C\C=C\C2=[N+](CC)c3ccccc3C23CCCCC3)C2(CCCCC2)c2ccccc21 [Compound 24] | 81.2% | 28.6% | B (The value of the growth rate of ALDH (+)/the growth rate of ALDH (−) is 0.8 or more and less than 0.95) | 0.81 | A (The value of the growth rate of ALDH (+)/the growth rate of ALDH (−) is less than 0.8) | 0.61 | A (The value of the growth rate of ALDH (+)/the growth rate of ALDH (−) is less than 0.8) | 0.48 |  |  | 496 nm | 569 nm | 6.5% | A (Cancer cell growth rate is less than 20%) |  |  | Cancer cell growth rate (%) [10]: 10.0%; Evaluation (cancer cell growth rate) [10]: A (Cancer cell growth rate is less than 20%)
5 | CN1\C(=C/C=C/C=C/C2=[N+](C)c3ccc4ccccc4c3C2(C)C)C(C)(C)c2c1ccc1ccccc21 [Compound 26] |  |  |  |  |  |  |  |  |  |  | 684 nm | 710 nm | 8.6% | A (Cancer cell growth rate is less than 20%) | 80 | A (Inhibition rate is 70 or more) | 
6 | Cc1nc(Nc2ncc(C(=O)Nc3c(C)cccc3Cl)s2)cc(N2CCN(CCO)CC2)n1 [Dasatinib] |  |  |  |  |  |  |  |  |  |  |  |  |  |  | 36 | C (Inhibition rate is less than 50) | 
